In ChEMBL document CHEMBL2176941, “Kinetic profile of amyloid formation in the presence of an aromatic inhibitor by nuclear magnetic resonance” (ACS Med Chem Lett, 2012) one finds inhibition, TIME and Activity data, which are given here for 1 molecule.

For assay [1], the target named is T1, Islet amyloid polypeptide (Homo sapiens) (UniProt P10997).
T1 sequence (whole entry): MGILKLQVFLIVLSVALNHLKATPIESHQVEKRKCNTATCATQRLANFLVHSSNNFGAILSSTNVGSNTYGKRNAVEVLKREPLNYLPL
Briefly: Inhibition of IAPP fibrillation at 1:1 protein to compound ratio after 44 days by transmission electron microscopy.

Assay [2] concerns the target T1, Islet amyloid polypeptide (Homo sapiens). In words: Inhibition of IAPP assembly assessed as prenucleation period at 1:1 protein to compound ratio by NMR analysis.
The target is the same in assay [3]. Briefly: Inhibition of IAPP assembly at 1:1 protein to compound ratio after 29 days by NMR analysis.
Assay [4] has the same target. In words: Inhibition of IAPP assembly at 1:1 protein to compound ratio after 18 to 31 days by NMR analysis.
Assay [5] has the same target. In words: Inhibition of IAPP assembly at 1:1 protein to compound ratio after 1 to 5 days by circular dichroism spectra analysis. A general note: CD spectra are sensitive to the conformation of chiral molecules.
The target is the same in assay [6]. Briefly: Inhibition of IAPP assembly assessed as nucleation period at 1:1 protein to compound ratio (reference value: 15.3 days).
A short description of assay [7]: Inhibition of IAPP (11 to 25) S20G mutant assembly at 1:1 protein to compound ratio after 1 to 8 days by TOCSY spectra analysis.
In assay [8] the target is T1, Islet amyloid polypeptide (Homo sapiens). In words: Activity of IAPP assessed as maximal rate of self-assembly at 1:1 protein to compound ratio by NMR analysis (reference value: 12.2/day).

Activity calls are given as the source filed them. No cut-off for these calls is given here.

For `COc1cc(/C=C/C(=O)CC(=O)/C=C/c2ccc(O)c(OC)c2)ccc1O`, the inhibition entry in assay [1] and in assay [3] was “inactive” each time. Further, the TIME came out at 408 h in assay [2] and 290 h in assay [6]. Moreover, the inhibition result in assay [4], in assay [5] and in assay [7] was “Active” throughout. Besides, the Activity in assay [8] was 15.1 day⁻¹.
